Source: ChEMBL document CHEMBL6071184, “Lasamide, a Potent Human Carbonic Anhydrase Inhibitor from the Market: Inhibition Profiling and Crystallographic Studies” (ACS Med Chem Lett, 2024)

How the values were obtained:
[1] = molecular target: Carbonic anhydrase 4 (Homo sapiens, UniProt P22748); test: Inhibition of full-length recombinant human CA IV-catalysed CO2 hydration by stopped-flow technique
[2] = molecular target: Carbonic anhydrase 14 (Homo sapiens, UniProt Q9ULX7); test: Inhibition of full-length recombinant human CA XIV-catalysed CO2 hydration by stopped-flow technique
Chain of Carbonic anhydrase 14 (Q9ULX7 whole entry): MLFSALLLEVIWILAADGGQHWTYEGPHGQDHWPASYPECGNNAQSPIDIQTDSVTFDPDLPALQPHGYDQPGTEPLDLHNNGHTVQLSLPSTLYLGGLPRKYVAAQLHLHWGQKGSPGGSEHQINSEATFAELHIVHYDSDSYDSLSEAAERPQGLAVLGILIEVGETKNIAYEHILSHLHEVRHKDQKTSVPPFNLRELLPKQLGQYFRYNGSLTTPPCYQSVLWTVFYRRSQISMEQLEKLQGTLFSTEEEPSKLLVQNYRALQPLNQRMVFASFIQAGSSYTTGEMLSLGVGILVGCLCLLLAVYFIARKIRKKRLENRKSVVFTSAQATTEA

[3] = molecular target: T1, Carbonic anhydrase 6 (Homo sapiens, UniProt P23280)
T1 sequence (P23280 whole entry): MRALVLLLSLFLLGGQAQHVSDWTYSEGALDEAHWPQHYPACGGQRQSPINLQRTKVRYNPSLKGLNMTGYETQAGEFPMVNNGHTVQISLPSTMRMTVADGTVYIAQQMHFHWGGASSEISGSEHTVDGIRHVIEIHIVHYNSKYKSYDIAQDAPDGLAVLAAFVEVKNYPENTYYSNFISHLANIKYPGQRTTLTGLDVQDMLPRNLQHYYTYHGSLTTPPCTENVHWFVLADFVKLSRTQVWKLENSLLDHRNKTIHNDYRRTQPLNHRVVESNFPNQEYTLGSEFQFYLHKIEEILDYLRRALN
Description: Inhibition of full-length recombinant human milk CA VI-catalysed CO2 hydration by stopped-flow technique

[4] = molecular target: Carbonic anhydrase 13 (Mus musculus, UniProt Q9D6N1); test: Inhibition of mouse CA XIII-catalysed CO2 hydration by stopped-flow technique
Chain of Carbonic anhydrase 13 (Q9D6N1 whole entry): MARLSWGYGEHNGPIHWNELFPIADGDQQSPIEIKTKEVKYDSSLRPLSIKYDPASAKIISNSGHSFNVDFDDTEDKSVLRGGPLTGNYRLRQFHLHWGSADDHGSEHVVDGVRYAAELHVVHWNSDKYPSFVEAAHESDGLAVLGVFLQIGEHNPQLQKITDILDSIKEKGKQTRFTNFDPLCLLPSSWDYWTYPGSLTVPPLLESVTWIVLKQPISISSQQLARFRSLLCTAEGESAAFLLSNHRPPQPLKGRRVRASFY

[5] = molecular target: T1, Carbonic anhydrase 6; remark: listed apart in the source
Description: Inhibition of full-length recombinant human saliva CA VI-catalysed CO2 hydration by stopped-flow technique

[6] = molecular target: Carbonic anhydrase 3 (Homo sapiens, UniProt P07451)
Chain of Carbonic anhydrase 3 (P07451 whole entry): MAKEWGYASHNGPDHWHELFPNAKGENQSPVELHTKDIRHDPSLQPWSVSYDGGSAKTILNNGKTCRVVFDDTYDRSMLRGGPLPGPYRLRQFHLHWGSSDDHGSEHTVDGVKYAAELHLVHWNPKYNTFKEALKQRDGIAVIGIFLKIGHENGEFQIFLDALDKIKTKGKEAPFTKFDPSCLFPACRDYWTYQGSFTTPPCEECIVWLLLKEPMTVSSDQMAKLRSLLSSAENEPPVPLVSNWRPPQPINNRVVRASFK
Description: Inhibition of full-length recombinant human CA III-catalysed CO2 hydration by stopped-flow technique

[7] = molecular target: Carbonic anhydrase 5B, mitochondrial (Homo sapiens, UniProt Q9Y2D0); test: Inhibition of full-length recombinant human CA VB-catalysed CO2 hydration by stopped-flow technique
Chain of Carbonic anhydrase 5B, mitochondrial (Q9Y2D0 whole entry): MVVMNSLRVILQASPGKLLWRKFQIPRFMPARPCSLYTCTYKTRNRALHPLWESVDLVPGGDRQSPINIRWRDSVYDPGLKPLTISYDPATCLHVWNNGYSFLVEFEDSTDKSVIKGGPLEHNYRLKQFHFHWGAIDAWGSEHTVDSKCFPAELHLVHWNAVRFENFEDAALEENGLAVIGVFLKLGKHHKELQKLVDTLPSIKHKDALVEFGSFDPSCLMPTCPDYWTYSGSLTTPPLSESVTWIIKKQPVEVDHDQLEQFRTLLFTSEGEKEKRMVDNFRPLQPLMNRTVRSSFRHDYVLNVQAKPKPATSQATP

[8] = molecular target: Carbonic anhydrase 7 (Homo sapiens, UniProt P43166)
Chain of Carbonic anhydrase 7 (P43166 whole entry): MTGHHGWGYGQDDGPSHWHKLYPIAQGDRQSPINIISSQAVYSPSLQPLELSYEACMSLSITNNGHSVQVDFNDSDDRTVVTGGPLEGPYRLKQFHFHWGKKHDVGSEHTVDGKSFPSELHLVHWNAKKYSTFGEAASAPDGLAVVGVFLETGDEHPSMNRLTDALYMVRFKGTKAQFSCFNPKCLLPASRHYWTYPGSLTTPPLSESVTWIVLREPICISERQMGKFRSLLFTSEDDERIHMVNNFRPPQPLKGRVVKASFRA
Description: Inhibition of full-length recombinant human CA VII-catalysed CO2 hydration by stopped-flow technique

[9] = molecular target: Carbonic anhydrase 5A, mitochondrial (Homo sapiens, UniProt P35218)
Chain of Carbonic anhydrase 5A, mitochondrial (P35218 whole entry): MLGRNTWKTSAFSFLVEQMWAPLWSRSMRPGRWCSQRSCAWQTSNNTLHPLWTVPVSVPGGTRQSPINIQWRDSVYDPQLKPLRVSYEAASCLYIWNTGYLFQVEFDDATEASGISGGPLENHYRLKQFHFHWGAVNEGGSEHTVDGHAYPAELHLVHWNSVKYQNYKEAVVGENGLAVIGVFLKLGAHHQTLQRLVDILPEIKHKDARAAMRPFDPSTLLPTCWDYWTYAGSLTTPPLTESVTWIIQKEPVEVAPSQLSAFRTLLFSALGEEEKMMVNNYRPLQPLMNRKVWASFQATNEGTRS
Description: Inhibition of full-length recombinant human CA VA-catalysed CO2 hydration by stopped-flow technique

Chain of Carbonic anhydrase 4 (P22748 whole entry): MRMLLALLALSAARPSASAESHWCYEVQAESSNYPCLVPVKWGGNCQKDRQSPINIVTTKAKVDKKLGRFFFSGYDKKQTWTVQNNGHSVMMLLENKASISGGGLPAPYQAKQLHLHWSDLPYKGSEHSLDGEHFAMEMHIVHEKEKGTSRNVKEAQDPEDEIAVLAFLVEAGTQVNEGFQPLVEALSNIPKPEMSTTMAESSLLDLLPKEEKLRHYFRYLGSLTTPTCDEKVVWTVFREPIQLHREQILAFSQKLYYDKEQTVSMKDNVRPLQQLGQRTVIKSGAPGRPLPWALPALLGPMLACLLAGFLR

- Ki [1]: 1.91 nM
- Ki [2]: 11.9 nM
- Ki [3]: 8.51 nM
- Ki [4]: 9.37 nM
- Ki [5]: 11.7 nM
- Ki [6]: > 50000 nM
- Ki [7]: 14.2 nM
- Ki [8]: 6.63 nM
- Ki [9]: 3.49 nM
SMILES: NS(=O)(=O)c1cc(C(=O)O)c(Cl)cc1Cl
